The record followed here is ChEMBL document CHEMBL1157002, “SAR of a series of inhaled A(2A) agonists and comparison of inhaled pharmacokinetics in a preclinical model with clinical pharmacokinetic data” (Bioorg Med Chem Lett, 2009).

Molecules are shown by their SMILES. Activity calls are given as the source filed them. The rule behind the calls is not given here. Where only a bound is given, the exact number is not on record here.

For series [1], the system named is Cavia porcellus. Description: Inhibition of capsaicin-induced bronchoconstriction in it dosed guinea pig up to 5 hrs. Type of series: functional, organism-based.
Series [2] relates to Cavia porcellus. The series is described as follows: Toxicity in it dosed guinea pig assessed as decrease of diastolic blood pressure. It is filed as organism-based, Artery. Conditions: in vivo, inhaled_or_intranasal.
In the next series the target is Adenosine receptor A2a (Homo sapiens, UniProt P29274).
Chain of Adenosine receptor A2a (P29274 whole entry): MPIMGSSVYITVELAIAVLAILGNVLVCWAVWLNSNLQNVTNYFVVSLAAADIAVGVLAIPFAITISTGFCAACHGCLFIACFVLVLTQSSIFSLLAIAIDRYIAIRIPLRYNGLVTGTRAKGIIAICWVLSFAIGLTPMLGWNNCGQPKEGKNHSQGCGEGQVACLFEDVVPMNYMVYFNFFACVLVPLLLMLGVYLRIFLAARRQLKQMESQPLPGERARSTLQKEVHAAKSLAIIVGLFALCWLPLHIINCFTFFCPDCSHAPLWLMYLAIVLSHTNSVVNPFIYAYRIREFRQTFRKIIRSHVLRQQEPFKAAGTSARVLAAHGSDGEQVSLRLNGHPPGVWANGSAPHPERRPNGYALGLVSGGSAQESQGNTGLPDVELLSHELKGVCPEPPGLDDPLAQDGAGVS
The subject of series [3] is Homo sapiens. The series is described as follows: Dose normalized fCmax in human at 100 ug administered by aerosol device measured up to 4 hrs (dose normalized to 1 mg/kg). Type of series: ADME, organism-based. Further details: dose 1 mg/kg. The conditions noted are these: in vivo.
For series [4], the system named is Homo sapiens. The series is described as follows: Dose normalized fCmax in human at 200 ug administered by aerosol device measured up to 4 hrs (dose normalized to 1 mg/kg). Conditions: in vivo. Further details: dose 1 mg/kg. It is filed as ADME, organism-based.
A short description of series [5]: Half life in human at 100 to 1600 ug administered by aerosol device. It is filed as ADME, organism-based. The conditions noted are these: in vivo, inhaled or intranasal.
For series [6], the system named is Homo sapiens. The series is described as follows: Dose normalized fCmax in human at 1600 ug administered by aerosol device measured up to 4 hrs (dose normalized to 1 mg/kg). Type of series: ADME, organism-based. On the set-up: dose 1 mg/kg. The conditions noted are these: in vivo.
Series [7] concerns Rattus norvegicus. Description: Unbound clearance in rat at 1 mg/kg, iv. Type of series: ADME, organism-based. On the set-up: dose 1 mg/kg, route intravenous. Conditions: in vivo.
Series [8] is described as follows: Intrinsic clearance in human liver microsomes. Type of series: ADME, Microsome.
The test system of series [9] is Rattus norvegicus. The series is described as follows: Dose normalized fCmax in rat (dose normalized to 1 mg/kg). Type of series: ADME, organism-based. Further details: dose 1 mg/kg. Conditions: in vivo.
Series [10] has as its system Homo sapiens. Description: Toxicity in human assessed as increase of sitting blood pressure at 200 to 1600 ug administered by aerosol device. It is filed as organism-based. The conditions noted are these: in vivo, inhaled_or_intranasal.
Series [11] concerns Homo sapiens. Description: Dose normalized fCmax in human at 800 ug administered by aerosol device measured up to 4 hrs (dose normalized to 1 mg/kg). The conditions noted are these: in vivo. It is filed as ADME, organism-based. On the set-up: dose 1 mg/kg.
For series [12], the system named is Homo sapiens. The series is described as follows: Dose normalized fCmax in human at 400 ug administered by aerosol device measured up to 4 hrs (dose normalized to 1 mg/kg). It is filed as ADME, organism-based. On the set-up: dose 1 mg/kg. The conditions noted are these: in vivo.
The species entered for series [13] is Cavia porcellus. The series is described as follows: Inhibition of capsaicin-induced bronchoconstriction in guinea pig at 10 ug up to 8 hrs. Type of series: functional, organism-based.
Series [14] is described as follows: Lipophilicity, log D at pH 7.4. Type of series: physicochemical. The conditions noted are these: buffer.

Description for Adenosine receptor A2a: Agonist activity at adenosine A2A receptor in fMLP-stimulated human neutrophils assessed as inhibition of superoxide production by colorimetric analysis

For `CCNC(=O)[C@H]1O[C@@H](n2cnc3c(NCC(c4ccccc4)c4ccccc4)nc(CNC(=O)NCCN4CCCCC4)nc32)[C@H](O)[C@@H]1O`, in the series on Cavia porcellus [1], the result was Active. Further, in the series on Cavia porcellus [2], the Activity result is reported as “Non-toxic”.

Regarding `CCNC(=O)[C@H]1O[C@@H](n2cnc3c(NCC(c4ccccc4)c4ccccc4)nc(C(=O)NCCNC(=O)NCCc4ccccc4)nc32)[C@H](O)[C@@H]1O`, inhibition at Adenosine receptor A2a was half-maximal at 10 nM (IC50).

As for `CCNC(=O)[C@H]1O[C@@H](n2cnc3c(NCC(c4ccccc4)c4ccccc4)nc(C(=O)NCCNC(=O)NC4CCN(c5ccccn5)CC4)nc32)[C@H](O)[C@@H]1O` [UK432097], the Cmax_unbound stood at 0.45 nM in the series on Homo sapiens [3]; 0.3 nM with Homo sapiens [4]; 0.12 nM with Homo sapiens [6]; 0.2 nM in the series with Rattus norvegicus [9]; 0.19 nM with Homo sapiens [11]; 0.19 nM in the series with Homo sapiens [12]. Further, the half-life in series [5] was 3 h. In the series on Rattus norvegicus [7], this compound had a CL free of 330 L/h/kg. Also, in series [8], the microsomal CLint is greater than 255 µL/min/mg. For the same compound, the Activity entry in the series on Homo sapiens [10] is reported as “Toxic”. Moreover, the outcome in the series listed under Cavia porcellus [13] was Active.

As to `O=C(NCCNC(=O)c1nc(NCC(c2ccccc2)c2ccccc2)c2ncn([C@@H]3O[C@H](CO)[C@@H](O)[C@H]3O)c2n1)NCCN1CCCCC1`, the half-maximal inhibitory concentration (IC50) against Adenosine receptor A2a turned out to be 45 nM.

For the compound `CCNC(=O)[C@H]1O[C@@H](n2cnc3c(NCC(c4ccccc4)c4ccccc4)nc(C(=O)NCCNC(=O)NCCN(C(C)C)C(C)C)nc32)[C@H](O)[C@@H]1O`, in series [14], the logD is 0.9. This compound gave a CL free with Rattus norvegicus [7] of 45 L/h/kg. Besides, the microsomal CLint in [8] stood at 81 µL/min/mg. This compound yielded a Cmax_unbound in the series with Rattus norvegicus [9] of 12.3 nM. Moreover, the IC50 at Adenosine receptor A2a is 5 nM.

The compound `CCNC(=O)[C@H]1O[C@@H](n2cnc3c(NCC(c4ccccc4)c4ccccc4)nc(C(=O)NCCNC(=O)NCc4ccccn4)nc32)[C@H](O)[C@@H]1O` yielded an IC50 against Adenosine receptor A2a of 4 nM.

In turn, `CCNC(=O)[C@H]1O[C@@H](n2cnc3c(NCC(c4ccccc4)c4ccccc4)nc(C(=O)NCCNC(=O)NCc4ccccc4)nc32)[C@H](O)[C@@H]1O` had an IC50 against Adenosine receptor A2a of 6 nM.

In turn, `CCNC(=O)[C@H]1O[C@@H](n2cnc3c(NCC(c4ccccc4)c4ccccc4)nc(C(=O)NCCNC(=O)NCCN4CCCCC4)nc32)[C@H](O)[C@@H]1O` showed a half-maximal inhibitory concentration (IC50) at Adenosine receptor A2a of 5 nM.

`CCNC(=O)[C@H]1O[C@@H](n2cnc3c(NCC(c4ccccc4)c4ccccc4)nc(C(=O)NCCNC(=O)NCCN4CCc5ccccc5C4)nc32)[C@H](O)[C@@H]1O`: the concentration for half-maximal inhibition (IC50) against Adenosine receptor A2a came out at 10 nM.

`CCNC(=O)[C@H]1O[C@@H](n2cnc3c(NCC(c4ccccc4)c4ccccc4)nc(C(=O)NCCNC(=O)NCCN(C(C)C)C4CCCC4)nc32)[C@H](O)[C@@H]1O` registered a 50% inhibitory concentration (IC50) at Adenosine receptor A2a of 7 nM.

Take `CCNC(=O)[C@H]1O[C@@H](n2cnc3c(NCC(c4ccccc4)c4ccccc4)nc(C(=O)NCCNC(=O)NCc4ccc(C(=O)O)cc4)nc32)[C@H](O)[C@@H]1O`: it took 0.4 nM to reach half-maximal inhibition against Adenosine receptor A2a (IC50).

With `CCNC(=O)[C@H]1O[C@@H](n2cnc3c(NCC(c4ccccc4)c4ccccc4)nc(CNC(=O)NCCN(C(C)C)C4CCCC4)nc32)[C@H](O)[C@@H]1O`, the log distribution coefficient (logD) in series [14] came out at 2. For the same compound, the CL free in the series with Rattus norvegicus [7] came to 210 L/h/kg. In the series with Rattus norvegicus [9], this compound displayed a Cmax_unbound of 1.8 nM.

In turn, `CCNC(=O)[C@H]1O[C@@H](n2cnc3c(NCC(c4ccccc4)c4ccccc4)nc(C(=O)NCCN(C)C(=O)NCCN4CCCCC4)nc32)[C@H](O)[C@@H]1O` had an IC50 against Adenosine receptor A2a of 305 nM.

As to `CCNC(=O)[C@H]1O[C@@H](n2cnc3c(NCC(c4ccccc4)c4ccccc4)nc(C(=O)NCCNC(=O)NCc4ccc(CN(CC)CC)cc4)nc32)[C@H](O)[C@@H]1O`, the 50% inhibitory concentration (IC50) at Adenosine receptor A2a came to 5 nM.
